For the experiment, the target named is T1, histamine-3 receptor (Rattus norvegicus, UniProt Q9QYN8).
T1 construct: Rat cortical membranes (12 mg wet weight/tube) were incubated with; from tissue; host or cells: male Sprague-Dawley rat brain cortex membranes
T1 sequence (Q9QYN8 whole entry): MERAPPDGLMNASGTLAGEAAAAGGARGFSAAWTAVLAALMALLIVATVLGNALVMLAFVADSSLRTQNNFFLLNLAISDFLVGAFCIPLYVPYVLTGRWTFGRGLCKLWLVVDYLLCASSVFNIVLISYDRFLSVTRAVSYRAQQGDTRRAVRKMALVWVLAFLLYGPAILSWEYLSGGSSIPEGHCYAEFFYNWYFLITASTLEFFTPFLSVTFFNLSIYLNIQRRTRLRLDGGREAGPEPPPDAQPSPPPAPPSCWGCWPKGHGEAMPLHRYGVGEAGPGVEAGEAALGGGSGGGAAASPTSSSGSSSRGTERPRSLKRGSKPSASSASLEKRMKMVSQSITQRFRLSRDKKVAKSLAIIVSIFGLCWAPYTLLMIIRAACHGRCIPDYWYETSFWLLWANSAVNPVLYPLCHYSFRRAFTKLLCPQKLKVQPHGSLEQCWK
Nature of the experiment: Histamine-3 receptor binding, displacement of (3H)-N-α-methylhistamine from rat cortical membranes. To be noted: male Sprague-Dawley rat brain cortical membranes; (3H)-N-α-methylhistamine ~0.6 nM; 30 minutes at 25° C.; Cheng-Prusoff.
Protocol: Briefly, male Sprague-Dawley rat brain cortices were homogenized (1 g tissue/10 mL buffer) in 50 mM Tris-HCl/5 mM EDTA containing protease inhibitor cocktail (Calbiochem) using a polytron set at 20,500 rpm. Homogenates were centrifuged for 20 minutes at 40,000× g. The supernatant was decanted, and pellets were weighed. The pellet was resuspended by polytron homogenization in 40 mL of 50 mM Tris-HCl/5 mM EDTA with protease inhibitors and centrifuged for 20 minutes at 40,000× g. […] Rat cortical membranes (12 mg wet weight/tube) were incubated with (^3H)-N-α-methylhistamine (˜0.6 nM) with or without H3 receptor antagonists in a total incubation volume of 0.5 mL of 50 mM Tris-HCl/5 mM EDTA (pH 7.7). Test compounds were dissolved in DMSO to provide a 20 mM solution, serially diluted and then added to the incubation mixtures prior to initiating the incubation assay by addition of the membranes. Thioperamide (3 μM) was used to determine nonspecific binding. Binding incubations were conducted for 30 minutes at 25° C. and terminated by addition of 2 mL of ice cold 50 mM Tris-HCl (pH 7.7) and filtration through 0.3% polyethylenimine-soaked Unifilter plates (Packard). These filters were washed 4 additional times with 2 mL of ice-cold 50 mM Tris-HCl and dried for 1 hour. Radioactivity was determined using liquid scintillation counting techniques. Results were analyzed by Hill transformation and Ki values were determined using the Cheng-Prusoff equation.
Regarding `CC(C)NCCCOc1ccc(-c2ccc(C(=O)N3[C@H](C)CC[C@H]3C)cc2)cc1` [Example 4, 3-[(4′-{[(2R,5R)-2,5-dimethylpyrrolidinyl]carbonyl}[1,1′-biphenyl]-4-yl)oxy]-N-isopropyl-1-propanamine], the inhibitory constant (Ki) (as a rule, the dissociation constant of the complex between target and ligand, obtained from inhibition or displacement) is 507 nM. To `CC1CCN(CCCOc2ccc(-c3ccc(C(=O)N4[C@H](C)CC[C@H]4C)cc3)cc2)CC1` [Example 7, 1-{3-[(4′-{[(2R,5R)-2,5-dimethylpyrrolidinyl]carbonyl}[1,1′-biphenyl]-4-yl)oxy]propyl}-4-methylpiperidine] belongs 3.66 nM. For the molecule `O=C(c1ccc(-c2ccc(OCCCN3CCC[C@@H]3CO)cc2)cc1)N1CCCC1` [Example 13, [(2R)-1-(3-{[4′-(1-pyrrolidinylcarbonyl)[1,1′-biphenyl]-4-yl]oxy}propyl)pyrrolidinyl]methanol], the affinity, expressed as Ki, was 80 nM. As to `CC1CCCN1C(=O)c1ccc(-c2ccc(OCCCN3[C@H](C)CC[C@H]3C)cc2)cc1` (stereo partly drawn) [Example 3, (2R,5R)-2,5-dimethyl-1-[3-({4′-[(2-methyl-1-pyrrolidinyl)carbonyl][1,1′-biphenyl]-4-yl}oxy)propyl]pyrrolidine], affinity was put at a Ki of 1 nM. To `CN(CCCOc1ccc(-c2ccc(C(=O)N3CCCC3)cc2)cc1)[C@@H]1CCN(Cc2ccccc2)C1` [Example 12, N-[(3R)-1-benzylpyrrolidinyl]-N-methyl-N-(3-{[4′-(1-pyrrolidinylcarbonyl)[1,1′-biphenyl]-4-yl]oxy}propyl)amine] belongs 384 nM.

Molecule `C[C@H](c1ccccc1)N(C)CCCOc1ccc(-c2ccc(C(=O)N3CCCC3)cc2)cc1` [Example 11, N-methyl-N-[(1R)-1-phenylethyl]-N-(3-{[4′-(1-pyrrolidinylcarbonyl)[1,1′-biphenyl]-4-yl]oxy}propyl)amine] had a Ki of 363 nM. With `CC(C)NC(=O)c1ccc(-c2ccc(OCCCN3[C@H](C)CC[C@H]3C)cc2)cc1` [Example 1, 4′-{3-[(2R,5R)-2,5-dimethylpyrrolidinyl]propoxy}-N-isopropyl[1,1′-biphenyl]-4-carboxamide] the figure was 2.84 nM. Molecule `O=C(c1ccc(-c2ccc(OCCCN3CCC[C@@H](O)C3)cc2)cc1)N1CCCC1` [Example 16, (3R)-1-(3-{[4′-(1-pyrrolidinylcarbonyl)[1,1′-biphenyl]-4-yl]oxy}propyl)-3-piperidinol] came in with a Ki of 71.5 nM.

On to `O=C(c1ccc(-c2ccc(OCCCN3CCC[C@H]3CO)cc2)cc1)N1CCCC1` [Example 14, [(2S)-1-(3-{[4′-(1-pyrrolidinylcarbonyl)[1,1′-biphenyl]-4-yl]oxy}propyl)pyrrolidinyl]methanol], for which the Ki was 6.07 nM.

On to `CC1CCN(C(=O)c2ccc(-c3ccc(OCCCN4[C@H](C)CC[C@H]4C)cc3)cc2)CC1` [Example 9, 1-[(4′-{3-[(2R,5R)-2,5-dimethylpyrrolidinyl]propoxy}[1,1′-biphenyl]-4-yl)carbonyl]-4-methylpiperidine], for which the Ki was 2.63 nM.

On to `C[C@@H]1CCC[C@H](C)N1CCCOc1ccc(-c2ccc(C(=O)N3CCCC3)cc2)cc1` [Example 15, (2R,6S)-2,6-dimethyl-1-(3-{[4′-(1-pyrrolidinylcarbonyl)[1,1′-biphenyl]-4-yl]oxy}propyl)piperidine], for which the Ki came to 7.18 nM. To `CCN(CC)CCCOc1ccc(-c2ccc(C(=O)N3[C@H](C)CC[C@H]3C)cc2)cc1` [Example 5, 3-[(4′-{[(2R,5R)-2,5-dimethylpyrrolidinyl]carbonyl}[1,1′-biphenyl]-4-yl)oxy]-N,N-diethyl-1-propanamine] belongs 13.8 nM. Turning to `C[C@@H]1CC[C@@H](C)N1C(=O)c1ccc(-c2ccc(OCCCN3CCOCC3)cc2)cc1` [Example 8, 4-{3-[(4′-{[(2R,5R)-2,5-dimethylpyrrolidinyl]carbonyl}[1,1′-biphenyl]-4-yl)oxy]propyl}morpholine], the Ki amounted to 114 nM.

The values are drawn from patent US20020111340A1, “Aminoalkoxybiphenylcarboxamides as histamine-3 receptor ligands and their therapeutic applications” (priority 2000, published 2002).
